What was measured:
[1] = test system: T. gondii; settings: 200 mg/kg per day for 10 days, previous studies; cited from earlier work
[2] = test system: M. tuberculosis; settings: literature; cited from earlier work
[3] = test system: C. albicans, A. fumigatus, C. neoformans; assay: Liposome binding, summary statements over all three fungal species

In the case of CC[C@H]1OC(=O)[C@H](C)[C@@H](O[C@H]2C[C@@](C)(OC)[C@@H](O)[C@H](C)O2)[C@H](C)[C@@H](O[C@@H]2O[C@H](C)C[C@H](N(C)C)[C@H]2O)[C@](C)(O)C[C@@H](C)CN(C)[C@H](C)[C@@H](O)[C@]1(C)O [Free AZI, Azithromycin], the mouse survival [1] is given as 100%.

For CO[C@H]1/C=C/O[C@@]2(C)Oc3c(C)c(O)c4c(O)c(c(/C=N/N5CCN(C)CC5)c(O)c4c3C2=O)NC(=O)/C(C)=C\C=C\[C@H](C)[C@H](O)[C@@H](C)[C@@H](O)[C@@H](C)[C@H](OC(C)=O)[C@@H]1C [free RIF, rifampin], the “doses reported to control murine infections” value [2] is given as about 10 mg/kg/day.

B1: DCS12: recombinant human DC-SIGN isoform, CRD fused to neck repeats 1 and 2, SEQ ID NO: 12 (protein)
chain: MAHHHHHHYGTGSGKGKGSGSGQSRQDAIYQNLTQLKAAVGELSEKSKLQEIYQELTQLKAAVERLCHPCPWEWTFFQGNCYFMSNSQRNWHDSITACKEVGAQLVVIKSAEEQNFLQLQSSRSNRFTWMGLSDLNQEGTWQWVDGSPLLPSFKQYWNRGEPNNVGEEDCAEFSGNGWNDDKCNLAKFWICKKSAASCSRDEEQFLSPAPATPNPPPA
With B1 the “bound more efficiently than untargeted AmB-LLs or BSA-AmB-LLs” value [3] was “more than an order of magnitude”.

Reference: patent US20250319024A1, “TARGETED NANOPARTICLES AND THEIR USES RELATED TO INFECTIOUS DISEASE” (priority 2021, published 2025)
